1 molecule from paper PMC6039096 (Science translational medicine, 2017) can be followed below.

One test deals with EZH2 (Homo sapiens, UniProt Q15910). Put plainly: biochemical inhibition assay with recombinant EZH2.
Another test addresses T1, EZH1 (Homo sapiens, UniProt Q92800).
T1 sequence (Q92800 1-747): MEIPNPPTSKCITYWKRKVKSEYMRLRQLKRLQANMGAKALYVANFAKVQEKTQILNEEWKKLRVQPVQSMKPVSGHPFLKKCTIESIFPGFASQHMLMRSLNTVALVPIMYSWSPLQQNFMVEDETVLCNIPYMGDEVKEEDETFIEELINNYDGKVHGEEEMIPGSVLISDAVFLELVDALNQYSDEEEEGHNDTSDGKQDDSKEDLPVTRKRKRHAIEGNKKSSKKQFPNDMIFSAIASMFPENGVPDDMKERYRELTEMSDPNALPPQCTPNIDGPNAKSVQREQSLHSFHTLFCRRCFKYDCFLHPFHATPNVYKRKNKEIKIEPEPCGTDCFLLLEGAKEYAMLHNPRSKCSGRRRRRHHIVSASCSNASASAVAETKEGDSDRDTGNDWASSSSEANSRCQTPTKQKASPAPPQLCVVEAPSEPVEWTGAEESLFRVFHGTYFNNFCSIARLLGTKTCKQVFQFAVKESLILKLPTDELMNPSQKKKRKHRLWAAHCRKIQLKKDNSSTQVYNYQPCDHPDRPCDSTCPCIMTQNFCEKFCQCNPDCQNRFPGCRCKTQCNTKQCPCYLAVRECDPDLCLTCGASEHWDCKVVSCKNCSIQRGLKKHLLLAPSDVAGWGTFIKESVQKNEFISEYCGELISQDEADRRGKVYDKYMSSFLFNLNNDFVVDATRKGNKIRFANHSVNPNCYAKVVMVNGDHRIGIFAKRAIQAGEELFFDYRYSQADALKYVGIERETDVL
Nature of the test: biochemical inhibition assay with recombinant EZH1.

Chain of EZH2 (Q15910 whole entry): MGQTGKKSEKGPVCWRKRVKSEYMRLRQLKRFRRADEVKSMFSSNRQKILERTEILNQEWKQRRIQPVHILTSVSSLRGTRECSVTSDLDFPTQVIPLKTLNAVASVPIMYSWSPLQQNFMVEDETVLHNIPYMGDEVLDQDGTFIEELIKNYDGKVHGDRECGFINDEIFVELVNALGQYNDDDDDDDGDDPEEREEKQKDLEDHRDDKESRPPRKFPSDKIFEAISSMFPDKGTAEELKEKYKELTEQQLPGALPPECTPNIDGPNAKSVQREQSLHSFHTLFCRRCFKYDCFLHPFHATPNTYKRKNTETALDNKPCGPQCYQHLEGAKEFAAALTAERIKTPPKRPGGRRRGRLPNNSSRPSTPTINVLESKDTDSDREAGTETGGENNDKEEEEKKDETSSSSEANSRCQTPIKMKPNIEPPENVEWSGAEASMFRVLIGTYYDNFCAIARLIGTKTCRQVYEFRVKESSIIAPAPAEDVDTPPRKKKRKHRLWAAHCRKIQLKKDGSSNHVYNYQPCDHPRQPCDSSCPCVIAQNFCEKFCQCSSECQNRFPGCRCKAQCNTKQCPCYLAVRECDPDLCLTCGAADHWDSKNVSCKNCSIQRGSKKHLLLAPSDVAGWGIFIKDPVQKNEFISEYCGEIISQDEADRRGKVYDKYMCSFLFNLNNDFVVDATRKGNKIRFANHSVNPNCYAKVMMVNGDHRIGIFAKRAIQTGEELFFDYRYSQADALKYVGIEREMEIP

`CCCc1cc(C)[nH]c(=O)c1CNC(=O)c1cc(-c2ccc(N3CCN(C)CC3)nc2)nc2c1cnn2C(C)C` [JQ-EZ-05]: the values for the Ki on EZH2 and at EZH1 were 2.2 nM and 26.5 nM, respectively.

In general, Ki refers to a measure of affinity in units of concentration, obtained from inhibition or displacement.
